Assay results from PubChem BioAssay (NCI).
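Results reflect a 48-hour exposure of cells in 96-well plates to compound at five concentrations. TGI marks complete inhibition of growth.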

Experiments:
Experiment in all cases: NCI anticancer screen, dose series, 48 h
[1] = system: NCI/ADR-RES ovarian
[2] = system: NCI-H226 lung
[3] = system: HS 578T breast
[4] = system: MDA-MB-435
[5] = system: SW-620 colon
[6] = system: SK-MEL-28 melanoma
[7] = system: HCT-116 colon
[8] = system: DU-145 prostate
[9] = system: IGROV1 ovarian
[10] = system: SF-539 CNS
[11] = system: HL-60(TB) leukemia
[12] = system: HOP-62 NSCLC
[13] = system: CAKI-1 renal
[14] = system: OVCAR-4 ovarian
[15] = system: CCRF-CEM leukemia
[16] = system: NCI-H23 lung
[17] = system: SNB-19 CNS
[18] = system: M14 melanoma
[19] = system: LOX IMVI melanoma
[20] = system: ACHN renal
[21] = system: HOP-92 NSCLC
[22] = system: T-47D breast
[23] = system: HT29 colon
[24] = system: OVCAR-3 ovarian
[25] = system: NCI-H522 lung
[26] = system: U251 CNS
[27] = system: MOLT-4 leukemia
[28] = system: SR leukemia
[29] = system: 786-0 renal
[30] = system: SF-295 CNS
[31] = system: UACC-62 melanoma
[32] = system: TK-10 renal
[33] = system: UACC-257 melanoma
[34] = system: UO-31 renal
[35] = system: MCF7 breast
[36] = system: SNB-75 CNS
[37] = system: SF-268 CNS
[38] = system: BT-549 breast
[39] = system: A549 NSCLC
[40] = system: NCI-H460 lung
[41] = system: PC-3 prostate
[42] = system: SK-MEL-5 melanoma
[43] = system: MALME-3M melanoma
[44] = system: SN12C renal
[45] = system: MDA-N
[46] = system: OVCAR-5 ovarian
[47] = system: RXF 393 renal
[48] = system: OVCAR-8 ovarian
[49] = system: MDA-MB-231 breast
[50] = system: A498 renal
[51] = system: EKVX NSCLC
[52] = system: HCT-15 colon
[53] = system: KM12 colon
[54] = system: SK-OV-3 ovarian
[55] = system: HCC-2998 colon
[56] = system: COLO 205 colon
[57] = system: SK-MEL-2 melanoma
[58] = system: K-562 leukemia
[59] = system: RPMI-8226 leukemia

CCN1C/C(=C\c2cc(OC)c(OC)c(OC)c2)C2=NN(c3ccccc3)C(c3cc(OC)c(OC)c(OC)c3)C2C1 (centres undefined)
TGI [1]: 7.4 µM
TGI [2]: 11.1 µM
TGI [3]: 1.32 µM
TGI [4]: 6.51 µM
TGI [5]: > 100 µM
TGI [6]: 2 µM
TGI [7]: 5.77 µM
TGI [8]: 23.6 µM
TGI [9]: 21.3 µM
TGI [10]: 1.91 µM
TGI [11]: > 23.8 µM
TGI [12]: 2.51 µM
TGI [13]: 3.85 µM
TGI [14]: 24.6 µM
TGI [15]: 8.3 µM
TGI [16]: 19.2 µM
TGI [17]: 6 µM
TGI [18]: 6.48 µM
TGI [19]: 10.6 µM
TGI [20]: > 36 µM
TGI [21]: 13.5 µM
TGI [22]: 18 µM
TGI [23]: 6.8 µM
TGI [24]: > 25.1 µM
TGI [25]: 3.06 µM
TGI [26]: 1.85 µM
TGI [27]: > 19.8 µM
TGI [28]: 65.5 µM
TGI [29]: 1.48 µM
TGI [30]: 18.5 µM
TGI [31]: > 54.2 µM
TGI [32]: 6.14 µM
TGI [33]: 12.7 µM
TGI [34]: 6.68 µM
TGI [35]: > 38.1 µM
TGI [36]: 1.32 µM
TGI [37]: 1.58 µM
TGI [38]: 22 µM
TGI [39]: 4.9 µM
TGI [40]: 2.24 µM
TGI [41]: 2.46 µM
TGI [42]: 15.5 µM
TGI [43]: 1.64 µM
TGI [44]: 11.3 µM
TGI [45]: 10.8 µM
TGI [46]: 12.3 µM
TGI [47]: 2.2 µM
TGI [48]: 4.72 µM
TGI [49]: 1.54 µM
TGI [50]: 43.6 µM
TGI [51]: 11.4 µM
TGI [52]: 25.7 µM
TGI [53]: > 36 µM
TGI [54]: 6.38 µM
TGI [55]: 2.25 µM
TGI [56]: 7.13 µM
TGI [57]: 31.9 µM

O=P(O)(OP(=O)(O)c1ccccc1)c1ccccc1 (tested in a mixture with another compound)
TGI [1]: > 100 µM
TGI [2]: > 100 µM
TGI [3]: > 100 µM
TGI [4]: > 100 µM
TGI [5]: > 100 µM
TGI [6]: > 100 µM
TGI [7]: > 100 µM
TGI [8]: > 100 µM
TGI [9]: > 100 µM
TGI [58]: > 100 µM
TGI [11]: > 100 µM
TGI [12]: > 100 µM
TGI [59]: > 100 µM
TGI [13]: > 100 µM
TGI [14]: > 100 µM
TGI [15]: > 100 µM
TGI [16]: > 100 µM
TGI [17]: > 100 µM
TGI [18]: > 100 µM
TGI [19]: > 100 µM
TGI [20]: > 100 µM
TGI [21]: > 100 µM
TGI [22]: > 100 µM
TGI [23]: > 100 µM
TGI [24]: > 100 µM
TGI [25]: > 100 µM
TGI [26]: > 100 µM
TGI [28]: > 100 µM
TGI [29]: > 100 µM
TGI [30]: > 100 µM
TGI [31]: > 100 µM
TGI [32]: > 100 µM
TGI [33]: > 100 µM
TGI [34]: > 100 µM
TGI [35]: > 100 µM
TGI [36]: > 100 µM
TGI [37]: > 100 µM
TGI [38]: > 100 µM
TGI [39]: > 100 µM
TGI [40]: > 100 µM
TGI [41]: > 100 µM
TGI [42]: > 100 µM
TGI [43]: > 100 µM
TGI [44]: > 100 µM
TGI [45]: > 100 µM
TGI [46]: > 100 µM
TGI [47]: > 100 µM
TGI [48]: > 100 µM
TGI [49]: > 100 µM
TGI [50]: > 100 µM
TGI [51]: > 100 µM
TGI [52]: > 100 µM
TGI [53]: > 100 µM
TGI [54]: > 100 µM
TGI [55]: > 100 µM
TGI [56]: > 100 µM
TGI [57]: > 100 µM
